Measurements as given in patent publication US9884806B2, “Cyclic vinylogous amides as bromodomain inhibitors” (ICAHN SCHOOL OF MEDICINE AT MOUNT SINAI, priority 2013, dated 2018).

Experiments:
[1] = biological target: T1, first bromodomain (BrD1) of human BRD4 (Homo sapiens, UniProt O60885); assay: Fluorescence anisotropy binding assay (competition with FITC-labeled MS417 probe); details: FITC-MS417 probe 80 nM, PBS pH 7.4, 1 hour, 25° C., read-out: BRD4_1 IC50
T1 construct: the first bromodomain (BrD1) of human BRD4; poly-His (cleaved yes); made in house
In short: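 BRD4 BrD1 (His tag removed by thrombin) at 0.25 to 1 μM competed against 80 nM FITC-labeled MS417 in PBS pH 7.4. Anisotropy read after 1 hour at 25° C. Ki derived from fitted IC50 by Nikolovska-Coleska-corrected Cheng-Prusoff equation, one-site competitive model.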

BRD4_2 = biological target: T2, BRD4_2 (Homo sapiens, UniProt O60885); assay: Fluorescence anisotropy binding assay (competition with FITC-labeled MS417 probe), BRD4_2; details: FITC-MS417 probe 80 nM, PBS pH 7.4, 1 hour, 25° C.
T2 construct: contains two tandem bromodomains (BrD1 and BrD2)

SMILES | IC50 [1] [nM] | melting point [°C] | IC50 (BRD4_2) [nM]
CC1=C(Nc2ccc3ccncc3c2)CCCC1=O [Example 01-56, 3-[(isoquinolin-7-yl)amino]-2-methylcyclohex-2-en-1-one] | 1000 to 10000 | 145 to 147 | > 10000
CC1=C(Nc2ccccn2)CCC1=O [Example 01-28, 2-methyl-3-(pyridin-2-ylamino)cyclopent-2-enone] | > 10000 | 163 to 165 | > 10000
CC1=C(Nc2ccc(N)cc2Cl)CCCC1=O [Example 02-12, 3-((4-amino-2-chlorophenyl)amino)-2-methylcyclohex-2-enone] | 1000 to 10000 | 156 to 158 | 1000 to 10000
CC1=C(Nc2ccc(NC(=O)/C=C\C(=O)O)cc2Cl)CCCC1=O [Example 05-84, (Z)-4-((3-chloro-4-((2-methyl-3-oxocyclohex-1-en-1-yl)amino)phenyl)-amino)-4-oxobut-2-enoic acid] | 1000 to 10000 | 200 to 202 | > 10000
CC1=C(Nc2ccc(C(=O)O)cc2C)CCC1=O [Example 01-14, 3-methyl-4-((2-methyl-3-oxocyclopent-1-en-1-yl)amino)benzoic acid] | 1000 to 10000 | 233 to 236 | 1000 to 10000
CC1=C(Nc2nccnc2Cl)CCCC1=O [Example 01-50, 3-[(3-chloropyrazin-2-yl)amino]-2-methylcyclohex-2-en-1-one] | > 10000 | 116 to 118 | > 10000

Further lines, results first:

IC50 [1] [nM] | melting point [°C] | IC50 (BRD4_2) [nM] | SMILES
< 1000 | 118 to 120 | 1000 to 10000 | CC1=C(Nc2cccc(NC(=O)c3ccccc3C)c2Cl)CCC1=O [Example 05-42, N-(2-chloro-3-((2-methyl-3-oxocyclopent-1-en-1-yl)amino)phenyl)-2-methylbenzamide]
< 1000 | 280 to 283 | 1000 to 10000 | CC1=C(Nc2ccc(NC(=O)c3ccccc3C)cc2Cl)CCC1=O [Example 05-41, N-(3-chloro-4-((2-methyl-3-oxocyclopent-1-en-1-yl)amino)phenyl)-2-methylbenzamide]
1000 to 10000 | 203 to 205 | 1000 to 10000 | CC1=C(Nc2ccncc2)CCC1=O [Example 01-30, 2-methyl-3-(pyridin-4-ylamino)cyclopent-2-enone]
< 1000 | 198 to 200 | < 1000 | COc1ccccc1S(=O)(=O)Nc1ccc(Cl)c(NC2=C(C)C(=O)CC2)c1 [Example 05-60, N-(4-chloro-3-((2-methyl-3-oxocyclopent-1-en-1-yl)amino)phenyl)-2-methoxybenzenesulfonamide]
< 1000 | 210 to 213 | 1000 to 10000 | CC1=C(Nc2ccc(NS(=O)(=O)C3CCCCC3)cc2Cl)CCC1=O [Example 05-64, N-(3-chloro-4-((2-methyl-3-oxocyclopent-1-en-1-yl)amino)phenyl)-cyclohexanesulfonamide]
1000 to 10000 | 205 to 208 | > 10000 | CC1=C(Nc2cccc(NC(=O)C3CCCCC3)c2Cl)CCCC1=O [Example 05-51, N-(2-chloro-3-((2-methyl-3-oxocyclohex-1-en-1-yl)amino)phenyl)-cyclohexanecarboxamide]
< 1000 | 60 to 67 | 1000 to 10000 | CC1=C(Nc2cc(NS(=O)(=O)N3CCOCC3)ccc2Cl)CCC1=O [Example 05-62, N-(4-chloro-3-((2-methyl-3-oxocyclopent-1-en-1-yl)amino)phenyl)-morpholine-4-sulfonamide]
< 1000 | 215 to 217 | < 1000 | CC1=C(Nc2cc(NS(=O)(=O)c3ccccc3F)ccc2Cl)CCC1=O [Example 05-58, N-(4-chloro-3-((2-methyl-3-oxocyclopent-1-en-1-yl)amino)phenyl)-2-fluorobenzenesulfonamide]
